The record followed here is US10323007B1, “N2N N4-disubstituted quinazoline-2,4-diamines and uses thereof” (University of South Florida, priority 2016, dated 2019).

SMILES strings stand for the structures. Converted amounts (≈) assume the structure as drawn. Where two headings read alike, the source gives them in different places.

The test system of data set [1] is A. baumannii 1646. The data set can be described thus: minimal bactericidal concentration (MBC) assay, strain 1646. The data set is classed as cell-based, Acinetobacter baumannii. The essentials:
(§1)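 MBC90 determined against A. baumannii clinical isolates to distinguish bactericidal from bacteriostatic activity, following the group's previously published MIC/MBC protocol.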

Data set [2] concerns A. baumannii 1652 biofilm. The data set can be described thus: biofilm eradication determination assay, strain 1652. The data set is classed as cell-based, Acinetobacter baumannii. To be noted: 90% biofilm eradication, Table 8.
For data set [3], the system named is A. baumannii 1646 biofilm. As to the kind of experiment: biofilm eradication determination assay, strain 1646. The data set is classed as cell-based, Acinetobacter baumannii.
Data set [4] has as its system A. baumannii 1651. As to the kind of experiment: minimal bactericidal concentration (MBC) assay, strain 1651. To be noted: Acinetobacter baumannii, Table 8, read-out: MBC90 1651. The class given is cell-based. The essentials:
as §1

The test system of data set [5] is human HepG2 cells. The class given is cell-based.

As for `CNc1nc(NCc2ccccc2)nc2ccc(C)cc12` [Compound 5, N^2-Benzyl-N^4,6-dimethylquinazoline-2,4-diamine], the MBC worked out at 0.77 µM (≈ 0.214 µg/mL) in data set [1] (Acinetobacter baumannii, 1646, strain 1646, Table 8 and text, read-out: MBC90 1646); 0.8 µM (≈ 0.223 µg/mL) in data set [1] (Acinetobacter baumannii, Table 6, representative data for isolate 1646, read-out: MBC90); 1.5 µM (≈ 0.418 µg/mL) in data set [4]. For the same compound, the “MBEC90 1652” value in data set [2] turned out to be 68 µM. The compound also displayed an MBEC90 in data set [3] (Table 6, representative data for isolate 1646) of 2.8 µM. For the same compound, the “reduction in biofilm viability” value in data set [3] (at 10 μM, strain 1646) was 3 log. In data set [3] (strain 1646, 90% biofilm eradication, Table 8 and text), the “MBEC90 1646” value is 2.8 µM. Moreover, in data set [5] (at 25 μM (highest concentration tested)), the HepG2 cell viability stood at 44%. In addition, the “LD50(HepG2)” value in data set [5] (human, 48 h) is 22 µM.
